68 compounds from BindingDB's records for doi:10.7270/Q2TX3CTT (Broad Institute, 2010) can be followed below.

The target of this assay is Glycogen synthase kinase-3 beta (Homo sapiens, UniProt P49841). Kind of assay: GSK3beta kinase inhibitor potency, dose response, biochemical, luminescence, cell-free homogeneous, retest (AID 434954).
Sequence of Glycogen synthase kinase-3 beta (P49841 whole entry): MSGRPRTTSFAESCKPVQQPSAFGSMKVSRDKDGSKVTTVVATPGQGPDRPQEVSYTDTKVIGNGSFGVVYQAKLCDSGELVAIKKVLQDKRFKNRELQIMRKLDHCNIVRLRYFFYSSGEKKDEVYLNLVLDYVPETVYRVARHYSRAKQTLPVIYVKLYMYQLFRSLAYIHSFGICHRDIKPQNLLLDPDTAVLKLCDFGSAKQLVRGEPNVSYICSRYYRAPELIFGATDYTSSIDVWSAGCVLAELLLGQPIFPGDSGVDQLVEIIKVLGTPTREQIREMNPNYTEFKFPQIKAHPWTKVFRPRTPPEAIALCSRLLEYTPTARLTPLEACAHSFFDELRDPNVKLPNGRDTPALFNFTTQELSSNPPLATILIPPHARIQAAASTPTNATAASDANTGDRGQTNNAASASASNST
Broadly, the EC50 is the midpoint of the concentration-response curve. The compound `CCNc1nc(N)nc(Oc2ccc(OCCOc3ccc(Cl)cc3Cl)nn2)n1` [6-[6-[2-(2,4-dichlorophenoxy)ethoxy]pyridazin-3-yl]oxy-2-N-ethyl-1,3,5-triazine-2,4-diamine] displayed an EC50 greater than 300 µM.

Regarding `c1ccc(Nc2ncnc3[nH]ncc23)cc1`, the EC50 is 45.5 µM. This lies in the double-digit micromolar range.

For the compound `CCOC(=O)C1C(C)=Nc2ncnn2C1c1cc(Br)ccc1F` (stereo not drawn) [ethyl 7-(5-bromo-2-fluorophenyl)-5-methyl-1,7-dihydro-[1,2,4]triazolo[1,5-a]pyrimidine-6-carboxylate], the EC50 came to 24 µM. This EC50 is about 1.9-fold lower than that of the compound before.

Take `CS(=O)(=O)c1ccc2nc(NC(=O)CN3CCN(Cc4ccccc4)CC3)sc2c1` [MLS000064538]: the EC50 is greater than 300 µM.

The compound `COc1ccc2c(c1)C(=O)Nc1cc(Cl)ccc1N2` [8-chloro-2-methoxy-5,10-dihydro-11H-dibenzo[b,e][1,4]diazepin-11-one] showed an EC50 greater than 300 µM.

For the compound `COc1cccc(NC(=O)NNS(=O)(=O)c2ccc(OC)cc2OC)c1` [SMR000679286], the EC50 is greater than 300 µM.

Compound `COc1ccc(C2c3c(n[nH]c3C)N=C3CC(C)(C)CC(=O)C32)cc1` (stereo not drawn) showed an EC50 of 28.3 µM.

Compound `COc1ccccc1-c1cc2ccccc2[nH]1` [2-(1H-indol-2-yl)phenyl methyl ether] displayed a concentration giving a half-maximal response (EC50) greater than 300 µM.

`O=C(CCc1ccccc1)Nc1ncc([N+](=O)[O-])s1` came in with an EC50 greater than 300 µM.

In turn, `CCOC(=O)c1nnn(-c2nonc2N)c1-c1cccs1` [1-(4-amino-1,2,5-oxadiazol-3-yl)-5-thiophen-2-yl-4-triazolecarboxylic acid ethyl ester] came in with a concentration for a half-maximal effect (EC50) of 11.7 µM. This counts as double-digit micromolar.

Consider `O=C(O)CSCC(=O)NCc1c(Cl)cccc1Oc1ccccc1`, for which the EC50 is greater than 300 µM.

`CCn1nc(NC(=O)CC(C)C)c2cc3cccc(C)c3nc21` [SMR000542878] showed an EC50 greater than 300 µM.

`CCCN(CCC)Cc1c(C(=O)NN=Cc2ccoc2)nnn1-c1nonc1N` [1-(4-amino-1,2,5-oxadiazol-3-yl)-5-[(dipropylamino)methyl]-N-(3-furanylmethylideneamino)-4-triazolecarboxamide] yielded an EC50 of 8.52 µM.

On to `COc1cc2c(cc1O)C[C@H]1NCCc3cc4c(c-2c31)OCO4` [SMR000156298], for which a half-maximal effect (EC50) was put at 16.3 µM.

The compound `O=C(Nc1ncc([N+](=O)[O-])s1)c1ccco1` [N-(5-nitro-2-thiazolyl)-2-furancarboxamide] had an EC50 greater than 300 µM.

Turning to `COc1ccc(C(=O)c2sc(Nc3ccc(NC(C)=O)cc3)nc2C)cc1` [N-{4-[5-(4-Methoxy-benzoyl)-4-methyl-thiazol-2-ylamino]-phenyl}-acetamide], the EC50 is greater than 300 µM.

With `O=C(Cc1ccc(Cl)cc1)Nc1ncc([N+](=O)[O-])s1` [2-(4-chlorophenyl)-N-(5-nitro-1,3-thiazol-2-yl)ethanamide], a half-maximal response (EC50) required 30.4 µM.

As for `CCOC(=O)C(C(=O)Nc1ccc(Cl)cc1Cl)C1=NC(C)(C)Cc2ccccc21` (stereo not drawn), the EC50 is greater than 300 µM.

As for `CCCc1c(C(=O)NN=Cc2ccncc2)nnn1-c1nonc1N`, the EC50 is greater than 300 µM.

Consider `CCN1CCN(c2nc(Nc3cc(OC)ccc3OC)nc(Nc3cc(OC)ccc3OC)n2)CC1` [SMR000439674], for which the EC50 is greater than 300 µM.

With `O=C(O)c1ccc(CN=Nc2ccc(C(F)(F)F)cn2)cc1`, the EC50 came to 20.4 µM. That is a double-digit micromolar value.

As to `Nc1nonc1-n1nnc(C(=O)NN=Cc2ccc(Br)cc2)c1CN1CCOCC1` [SMR000646504], the EC50 was greater than 300 µM.

`CN(C)/N=N/c1ccc(S(N)(=O)=O)cc1` [SMR000272943] came in with an EC50 greater than 300 µM.

Take `Cc1ccc2c(c1)C1CN(C)CCC1N2C(=O)Nc1cccc(Cl)c1` (stereo not drawn) [MLS000565326]: the concentration for a half-maximal effect (EC50) is greater than 300 µM.

`O=C(Nc1cccc2c1C(=O)NC2=O)c1cccc(-n2c(O)ccc2O)c1` returned an EC50 greater than 300 µM.

For the compound `Cc1cc2c(s1)NC(=O)CN=C2c1cccs1` [MLS000072965], the EC50 worked out at 33.1 µM.

Compound `CCOC(=O)C1(Cc2cccc(F)c2)CCN(Cc2cn(CC)nc2C)CC1` [1-[(1-ethyl-3-methyl-4-pyrazolyl)methyl]-4-[(3-fluorophenyl)methyl]-4-piperidinecarboxylic acid ethyl ester] gave an EC50 greater than 300 µM.

In turn, `Cc1c(O)ccc(C(=O)CN2CCN(c3ccc(F)cc3)CC2)c1O` [1-(2,4-dihydroxy-3-methylphenyl)-2-[4-(4-fluorophenyl)-1-piperazinyl]ethanone] had an EC50 greater than 300 µM.

Take `COc1cc(/C=N/NC(=O)c2cccc(Cl)c2)ccc1Oc1ccc([N+](=O)[O-])cn1` [MLS000779574]: the EC50 was greater than 300 µM.

Regarding `COCCCNc1nc(N)c([N+](=O)[O-])c(NCc2ccccc2)n1`, the EC50 stood at 5.95 µM.

For `O=C(CCC1COc2ccccc2O1)NCC1COc2ccccc2O1` (stereo not drawn), the EC50 is greater than 300 µM.

Take `Nc1ccc(O)c2c(=O)cc(-c3ccccc3Cl)oc12` [MLS000518334]: it took 21.5 µM to reach a half-maximal effect (EC50).

In turn, `Nc1nc(S)c2ncn(C3OC(CO)C(O)C3O)c2n1` (stereo not drawn) [2-azanyl-9-[5-(hydroxymethyl)-3,4-bis(oxidanyl)oxolan-2-yl]-3H-purine-6-thione] displayed an EC50 greater than 300 µM.

As for `COc1ccc(C2=NOC(C(=O)Nc3cccnc3)C2)cc1` (stereo not drawn) [SMR000130842], the concentration giving a half-maximal response (EC50) is greater than 300 µM.

`Cc1cc2c(N3CCCCC3C)ncnc2s1` (stereo not drawn) [SMR000033135] returned an EC50 greater than 300 µM.

Compound `CN(C)Cc1c(O)ccc2c(=O)c(-c3ccccc3)c(C(F)(F)F)oc12` registered an EC50 greater than 300 µM.

For `Cc1ccc(CSc2ccc(-c3cccs3)nn2)cc1` [3-[(4-methylphenyl)methylsulfanyl]-6-thiophen-2-ylpyridazine], the EC50 is greater than 300 µM.

`Cc1ccc(S(=O)(=O)N2CN(Cc3ccco3)c3nc4ccccc4nc32)cc1` [SMR000145587] showed an EC50 greater than 300 µM.

For `Cc1cccc(Nc2ccccc2C(=O)O)c1C`, the EC50 is greater than 300 µM.

`CC1=NC2=C(C(=O)CC(C)(C)C2)C(c2ccc(O)cc2)C1C#N` (stereo not drawn) showed a concentration for a half-maximal effect (EC50) greater than 300 µM.

Take `COCC/N=C1\Sc2nc3c(C)cccc3cc2CN1Cc1ccco1` [SMR000122349]: the EC50 is greater than 300 µM.

`COCCCNC(=O)c1cccn2c(=O)c3cc4ccccc4cc3nc12` [N-(3-methoxypropyl)-12-oxidanylidene-12H-benzo[g]pyrido[2,1-b]quinazoline-4-carboxamide]: the midpoint of the response, the EC50, lay at 0.531 µM.

Take `O=C(O)Cc1sc(N[N-][CH+]c2ccc(-c3ccc(Cl)c([N+](=O)[O-])c3)o2)nc1O` [MLS000689975]: the EC50 was greater than 300 µM.

As to `CSc1nc2n(n1)C(c1cccs1)C1C(=O)CCCC1=N2` (stereo not drawn) [SMR000295648], the EC50 was greater than 300 µM.

In turn, `O=c1oc(-c2cccs2)nc2sc3c(c12)CCC3` [MLS000107331] showed an EC50 greater than 300 µM.

Turning to `Cn1c(SCC(=O)Nc2ccc(Cl)cn2)nnc1C1CC1` [N-(5-chloro-2-pyridinyl)-2-[(5-cyclopropyl-4-methyl-1,2,4-triazol-3-yl)thio]acetamide], a half-maximal effect (EC50) was put at 23.7 µM.

With `Clc1ccc(CN=Nc2ncnc3nc[nH]c23)cc1` [MLS000419189], the EC50 is 20.4 µM. The EC50 values of the last two compounds are within 1.5-fold of each other.

`Cc1ccnc(NC(=O)C(C)n2cc([N+](=O)[O-])cn2)c1` (stereo not drawn) returned an EC50 of 7.19 µM.

Consider `COc1cccc(C(=O)NCC(=O)NN=C(C)C=Cc2ccccc2)c1` [MLS000723417], for which the EC50 was greater than 300 µM.

For `CC(C)CNc1nc(N)c([N+](=O)[O-])c(N2CCCCCC2)n1` [6-(azepan-1-yl)-N2-(2-methylpropyl)-5-nitro-pyrimidine-2,4-diamine], the midpoint of the response, the EC50, lay at 98 µM.

With `O=C(O)c1cc(C2CC2)nc2ccccc12` [2-cyclopropyl-4-quinolinecarboxylic acid], the EC50 was greater than 300 µM.

Turning to `Nc1nc(Cl)nc2c1ncn2C1OC(CO)C(O)C1O` (stereo not drawn), the EC50 is greater than 300 µM.

The compound `CNC(=O)NC(=O)CSc1nc2ccccc2n1CCOC` [2-[1-(2-methoxyethyl)benzimidazol-2-yl]sulfanyl-N-(methylcarbamoyl)ethanamide] came in with an EC50 greater than 300 µM.

For `Nn1c(-c2cccs2)nc2sc3c(c2c1=O)CCCC3` [3-azanyl-2-thiophen-2-yl-5,6,7,8-tetrahydro-[1]benzothiolo[2,3-d]pyrimidin-4-one], the EC50 is greater than 300 µM.

Compound `Cc1c(Br)c([N+](=O)[O-])nn1CC(=O)Nc1c(C)n(C)n(-c2ccccc2)c1=O` [2-(4-Bromo-5-methyl-3-nitro-pyrazol-1-yl)-N-(1,5-dimethyl-3-oxo-2-phenyl-2,3-dihydro-1H-pyrazol-4-yl)-acetamide] registered an EC50 greater than 300 µM.

`Cc1ccnc(NC(=O)C2CC(=O)N(c3ccc4c(c3)OCCO4)C2)c1` (stereo not drawn) [SMR000709078] displayed an EC50 of 25.6 µM.

`COc1cccc(/C=C2/Sc3ccc(C(=O)NCCN4CCCC4)cc3NC2=O)c1` [(2E)-2-[(3-methoxyphenyl)methylidene]-3-oxo-N-(2-pyrrolidin-1-ylethyl)-4H-1,4-benzothiazine-6-carboxamide] yielded an EC50 of 2.81 µM. This EC50 is about 9.1-fold lower than that of the compound before.

`CC(=O)c1cccc(S(=O)(=O)NC2CCSc3ccccc32)c1` (stereo not drawn) returned an EC50 greater than 300 µM.

The compound `Cc1[nH]nc2c1C(c1ccc(O)cc1)C1C(=O)CC(C)(C)CC1=N2` (stereo not drawn) gave an EC50 of 2.06 µM.

For the compound `N#Cc1ccccc1CSc1nnc(Cc2ccccc2)o1` [SMR000297282], the EC50 was greater than 300 µM.

`Cc1cccc(NC(=O)C(C)n2cc([N+](=O)[O-])cn2)n1` (stereo not drawn) [N-(6-methylpyridin-2-yl)-2-(4-nitro-1H-pyrazol-1-yl)propanamide]: the EC50 is greater than 300 µM.

In turn, `CCOC(=O)c1nnn(CC(=O)Nc2cccc(OC)c2)c1C(=O)OCC` returned an EC50 greater than 300 µM.

In turn, `CCCN(CCC)c1nc(N)nc(-c2cc(Cl)ccc2OC)n1` [MLS000538209] came in with an EC50 greater than 300 µM.

`O=C(CSc1ccc2nnc(-c3ccc(F)cc3)n2n1)NCc1ccco1` [2-[[3-(4-fluorophenyl)-[1,2,4]triazolo[4,3-b]pyridazin-6-yl]thio]-N-(2-furanylmethyl)acetamide] displayed an EC50 of 39.9 µM.

In turn, `COc1ccccc1Nc1nc(NCCC(C)C)nc(N)c1[N+](=O)[O-]` [N'-(2-Methoxy-phenyl)-N-(3-methyl-butyl)-5-nitro-pyrimidine-2,4,6-triamine] showed a half-maximal effective concentration (EC50) of 0.584 µM.

As for `O=C(NN=Cc1ccc2nccnc2c1)c1ccncc1` [N-(quinoxalin-6-ylmethylideneamino)pyridine-4-carboxamide], the EC50 is greater than 300 µM.

`CC(=O)N1CCc2c(sc(NC(=O)CCS(=O)(=O)c3ccccc3)c2C(N)=O)C1` registered an EC50 of 122 µM.

`COc1cccc(Nc2nc(-c3ccccc3)nc3ccccc23)c1` came in with a 50% effective concentration (EC50) greater than 300 µM.
